From article PMC6364495, “Peptide–siRNA Supramolecular Particles for Neural Cell Transfection” (Advanced Science, 2018)
No end group written: not given here.

How the values were obtained:
[1] = system: primary cortical embryonic neurons; test: Internalization route with endocytosis inhibitors, neurons; format: cell-based, mouse; conditions: 300 μM amiloride, 30 minutes preincubation before P4 + siRNA-A488, flow cytometry
Procedure: 1-4 days post-transfection cells were washed carefully three times with 1x PBS. Each well was incubated with 200 µL […]
resuspended in 600 µL of media to neutralize the trypsin and were centrifuged for 15 min at […]. Supernatant was removed, and the pellet was re-suspended in approximately 40 μL of media before Flow Cytometry (BD LSRFortessa) was performed. DAPI (Sigma, 5 µg/mL) was added 1-3 min before measurements were taken to determine the absolute number of dead cells (excitation wavelength of 405 nm). Cell populations were gated based on cell size (FSC), granularity of the cytoplasm (SSC), multiple cells (FSC-W), UV fluorescence (DAPI filter). Percentage of positive cells was calculated from alive cells (DAPI negative). All the samples were measured in triplicates. Results were analyzed using FlowJo software.
After 15 div neural cells were treated with either 5 μg/mL chlorpromazine hydrochloride, 1μg/mL fillipin III from Streptomyces filipinensis, 300 μM amiloride hydrochloride or a combination of them in fresh serum-free medium for 30 minutes before incubated with the peptide (52 μM) + siRNA-A488 (100 nM) for 15h. Samples were analyzed using flow cytometry as described in the previous section.
Western blot/ immunocytochemistry […]

[2] = system: primary cortical embryonic neurons; format: cell-based; conditions: 24 h, 104 µM
Procedure: (§1) Dulbecco’s Modified Eagle Medium (DMEM, Biological Industries), 10% normal horse serum (NHS, GIBCO), 1% penicillin-streptomycin (Pen-Strep, Biological Industries) and 2mM L-glutamine (Biological Industries). After centrifugation and re-suspension, cells were plated and grown to confluence at 37°C, 5% CO 2 (approximately 25-30 days in vitro (div)).
(§2) All the experiments were performed using glial cells from the first passage (Ps1). Passage 1 (Ps1) cells were cultured at a density of 2x10^5 cells/cm2 for 15 days in vitro (div) in DMEM, 1% Pen-Strep and 2mM L-glutamine on non-coated culture plastic (for Western blotting, flow cytometry) or glass (for immunocytochemistry). The cell composition and biochemical characterization of control and reference glial conditions have been described previously2.
(§3) Neurons were obtained from embryonic brains, as described3. Briefly, a time pregnant mouse was sacrificed by cervical dislocation and the embryos were extracted at embryonic day 16 (E16). […]
(§4) resuspended in 600 µL of media to neutralize the trypsin and were centrifuged for 15 min at 1.2 rpm. […] Cell populations were gated based on cell size (FSC), granularity of the cytoplasm (SSC), multiple cells (FSC-W), UV fluorescence (DAPI filter). Percentage of positive cells was calculated from alive cells (DAPI negative). All the samples were measured in triplicates. Results were analyzed using FlowJo software. […]

[3] = system: primary cortical astroglial cells; format: cell-based; conditions: 24 h, 104 µM
Procedure: as §1, §2, §3, §4

DNAse I = target: T1, DNAse I (Bos taurus, UniProt P00639); test: Salt stability and DNAse I digestion of P4-DNA particles; format: in vitro ADME; conditions: versus siRNA particles, DNAse I 0.003 U/µL, 37 C, gel
T1 construct: purchased Invitrogen
Procedure: (§5) (Inhepar®, 5000 U/mL equivalent to) and Milli -Q® water to a final concentration of 0.01 mg/mL (1 U/mL) in a final volume of 10 μL. Samples were incubated at room temperature for 2h. After incubation, samples were run in a native 6% polyacrylamide electrophoresis gel as described in the section above.
(§6) A solution of 40 µM peptide and 0.2 µM DNA dissolved in 10X DNAse I buffer (Invitrogen) was mixed with DNAse I (Invitrogen) for a final enzyme concentration of 0.003 U/µL. The solution was incubated at 37 C and at each time point, 12 µL were mixed with 2.7 µL of 5X TBE buffer in ice to quench the enzyme. Then an aliquot of 4 M NaCl was added to every time point sample to a final concentration of […] after incubation for 3 days at 4°C the samples were ran in an electrophoresis gel.
(§7) Proteinase K Digestion Test
(§8) A previously prepared solution of 50 µM peptide and 0.2 µM siRNA dissolved in buffer 25 mM HEPES pH 7.4 were incubated during 24h at 37C in presence of Proteinase K from Tritirachium album (Sigma-Aldrich). After this time an aliquot of it was ran in an electrophoresis gel as mentioned above.
(§9) Salt stability of P4-siRNA particles
(§10) Sample solutions of 70 µM P4 peptide and 0.2 µM of siRNA in 25 mM HEPES pH 7.4 were incubated with different concentrations of NaCl (0-300 mM) for 24h at room temperature.
(§11) The samples were run in a native 6% polyacrylamide electrophoresis gel prepared manually. […]

Proteinase K = target: T2, Proteinase K (Parengyodontium album, UniProt P06873); test: Proteinase K digestion test; format: in vitro ADME, Tritirachium album; conditions: 50 µM peptide, 0.2 µM siRNA, 25 mM HEPES pH 7.4, 24h, 37C, gel
T2 construct: purchased Sigma-Aldrich
Procedure: as §5, §6, §7, §8, §9, §10, §11

[4] = Water solubility of peptide; format: physicochemical

T1 sequence (P00639 23-282): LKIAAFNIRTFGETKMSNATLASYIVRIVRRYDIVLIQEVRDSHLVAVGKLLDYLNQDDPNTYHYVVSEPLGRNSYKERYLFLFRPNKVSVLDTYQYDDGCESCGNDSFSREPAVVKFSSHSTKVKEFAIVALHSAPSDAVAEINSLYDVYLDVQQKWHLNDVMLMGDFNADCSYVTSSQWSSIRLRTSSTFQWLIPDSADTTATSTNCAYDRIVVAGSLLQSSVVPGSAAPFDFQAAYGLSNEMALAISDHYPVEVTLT
T2 sequence (P06873 106-384): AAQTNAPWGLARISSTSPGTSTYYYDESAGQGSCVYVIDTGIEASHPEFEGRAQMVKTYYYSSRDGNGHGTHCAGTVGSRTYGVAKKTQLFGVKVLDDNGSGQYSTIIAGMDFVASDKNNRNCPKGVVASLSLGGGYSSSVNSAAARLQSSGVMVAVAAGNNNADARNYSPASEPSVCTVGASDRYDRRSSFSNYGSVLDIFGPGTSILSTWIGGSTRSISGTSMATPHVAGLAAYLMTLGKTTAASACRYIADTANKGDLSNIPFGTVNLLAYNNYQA

N=C(N)NC(=O)c1nc(Cl)c(N)nc1N [Amiloride, amiloride]
reduction of uptake of siRNA, neuronal [1]: 80% ± 9.1

SIRKLEYEIEELRLRIGGGTFVETGSGTSKQVAKRVAAEKLLTKFKT [P4]
cell survival, neuronal cells [2]: 89% ± 7 | cell survival, astroglial cells [3]: 88% ± 5.5 | salt and enzymatic stability of P4 complexed with dsDNA (DNAse I): lower salt and enzymatic stability | release of siRNA after proteinase K digestion (Proteinase K): can be released after protease digestion

MPVGSLQELAVQKGWRLPEYTVAQESGPPHKREFTITVRVE [P1]
water solubility [4]: poor water solubility
